Laboratory results reported in publication PMC3683333, “^11C-LY2428703, a positron emission tomographic radioligand for the metabotropic glutamate receptor 1, is unsuitable for imaging in monkey and human brains” (EJNMMI Research, 2013).
Where two headings read alike, the source gives them in different places. Marks after values point to notes of the source that are not given here.

What was measured:
[1] = Plasma free fraction by ultrafiltration, monkey; format: in vitro ADME, rhesus monkeys
Protocol: (§1) The plasma free fraction (fp) of ^11C-LY2428703 was measured by ultrafiltration through membrane filters (Centrifree; Millipore, Billerica, MA, USA) as previously described. Briefly, about 740 kBq of ^11C-LY2428703 (approximately 5 μL) was added to 650 μL of plasma. The mixture was incubated at room temperature for 10 min and then processed as described previously. When radioactivities for the filter components were high, they were allowed to decay until they were within the optimal range of the γ-counter. Determining the free fraction during preblocking was done by drawing blood samples after the preblocking treatments were initiated but immediately before administering the radioligand.
To assess the effects of blocking agents on the fP of ^11C-LY2428703, fP was measured in three monkeys both at baseline and after blockade. The first monkey was blocked with cold LY2428703 and fP was measured 2.5 min after blocker injection (which corresponds to the maximal concentration in plasma of LY2428703), and again at 40 min. The other two monkeys were blocked with DCPQ and elacridar, respectively.

[2] = Plasma free fraction by ultrafiltration, human; format: in vitro ADME; settings: humans, n = 3
Protocol: as §1
(§2) PET images were acquired using the GE Advance scanner (GE Healthcare, Milwaukee, WI, USA) for 120 min. An 8-min ^68Ge transmission scan was obtained before the injection of the radiotracer for attenuation correction. The mean injected activity was 328 ± 12 MBq. The specific activity at the time of injection was 87.2 ± 34.7 GBq/μmol, which corresponded to 5.5 ± 2.3 nmol (0.082 ± 0.037 nmol/kg) of carrier. Blood samples (1 mL each) were drawn from the radial artery at 15-s intervals until 150 s, followed by 3-mL samples at 3, 4, 6, 8, 10, 15, 20, 30, 40, and 50 min, and 4.5 mL at 60, 75, 90, and 120 min. The unchanged parent fraction in plasma and fP of ^11C-LY2428703 were determined as described above.

[3] = Whole-body biodistribution and radiation dosimetry, monkey; format: in vivo, rhesus monkeys; settings: for radiation-absorbed dose: monkey data extrapolated to 70-kg adult male
Protocol: Two male rhesus monkeys (14.1 and 19.9 kg) were scanned after intravenous injection of 318 and 274 MBq of ^11C-LY2428703, respectively. Dynamic two-dimensional scans were acquired on the GE Advance tomograph (GE Medical Systems, Milwaukee, WI, USA) in five bed positions of the body (head to upper thigh), with frames of increasing duration (15 s to 4 min) for a total scan time of up to 115 min.
Images were analyzed by placing regions of interest on the dynamic tomographic images. Regions were drawn in identifiable source organs: brain, heart, lungs, liver, spleen, gallbladder, kidneys, lumbar vertebrae, small intestine, testes, and urinary bladder. […] The mean recovery of activity in the body above the thigh measured by PET was 85.6% of the injected activity measured by a dose calibrator. This recovered total activity in the body was used as the new injected activity for each scan.
At each time point, the activity measured within the organs was converted into the fraction of the injected dose by dividing the organ activities by the recovered injected activity. The area under the curve (AUC) of each organ was calculated by the trapezoidal method until acquisition ended. The area under the curve after the acquisition of the last image (i.e., to infinity) was calculated by assuming that the decline in radioactivity after this time point occurred only via physical decay, without any further biological clearance.
Residence times from the monkeys were converted into corresponding human values by multiplying with a factor to scale organ and body weights: (bm/om) × (oh/bh), where bm and bh are the body weights of monkey and human, respectively, and om and oh are the organ weights of monkey and human, respectively.
Radiation absorbed doses were calculated from the residence times for each source organ. We used the model for a 70-kg adult male in the OLINDA/EXM computer program.

[4] = parameters: method as in PMID 23135321; settings: rats; cited from earlier work
mGluR1 = mGluR1 (Homo sapiens, UniProt Q13255); test: Brain PET at baseline, human; format: in vivo; parameters: from tissue; host or cells: brain of living healthy human volunteers (in vivo PET); settings: for VT: mean ± SD
From the text: Three healthy females participated in the study (29 ± 2-year old, 69 ± 13 kg). All were free from current medical and psychiatric illnesses, as assessed by medical history, physical examination, electrocardiogram, urinalysis including drug screening, and blood tests (complete blood count, serum chemistries, thyroid function test, and antibody screening for syphilis, HIV, and hepatitis B). The National Institutes of Health Central Nervous System Institutional Review Board approved the protocols and the consent forms. Written informed consent was obtained from all subjects.
as §2
To identify brain regions, magnetic resonance (MR) images were obtained using a 3-T GE Signa device (GE Healthcare, Milwaukee, WI, USA). T1-weighted structural images were acquired with a voxel size of 0.86 mm × 0.86 mm × 1.2 mm. The image acquisition sequences were the time of repetition (7.3 ms), echo time length (2.8 ms), and flip angle (6°).
The average PET image created from all frames was first coregistered to the individual MR image. Then, both MR and all PET images were spatially normalized to a standard anatomic orientation (Montreal Neurological Institute (MNI) space) based on transformation parameters from the MR images. A volume-of-interest template as implemented in PMOD (PMOD Technologies Ltd, Zurich, Switzerland) was used to obtain brain time-activity curves.
Volumes of distribution (VT) were obtained by nonlinear compartmental analysis. Goodness-of-fit by nonlinear least squares analysis was evaluated using the Akaike Information Criterion (AIC) and Model Selection Criterion (MSC). The most appropriate model is that with the smallest AIC and the largest MSC score. Goodness-of-fit by the compartment models was compared with F statistics. A value of P < 0.05 was considered significant for F statistics. The identifiability of kinetic variables was calculated as standard error obtained from the diagonal of the covariance matrix and expressed as a percentage of the rate constant.

Sequence of mGluR1 (Q13255 19-1194): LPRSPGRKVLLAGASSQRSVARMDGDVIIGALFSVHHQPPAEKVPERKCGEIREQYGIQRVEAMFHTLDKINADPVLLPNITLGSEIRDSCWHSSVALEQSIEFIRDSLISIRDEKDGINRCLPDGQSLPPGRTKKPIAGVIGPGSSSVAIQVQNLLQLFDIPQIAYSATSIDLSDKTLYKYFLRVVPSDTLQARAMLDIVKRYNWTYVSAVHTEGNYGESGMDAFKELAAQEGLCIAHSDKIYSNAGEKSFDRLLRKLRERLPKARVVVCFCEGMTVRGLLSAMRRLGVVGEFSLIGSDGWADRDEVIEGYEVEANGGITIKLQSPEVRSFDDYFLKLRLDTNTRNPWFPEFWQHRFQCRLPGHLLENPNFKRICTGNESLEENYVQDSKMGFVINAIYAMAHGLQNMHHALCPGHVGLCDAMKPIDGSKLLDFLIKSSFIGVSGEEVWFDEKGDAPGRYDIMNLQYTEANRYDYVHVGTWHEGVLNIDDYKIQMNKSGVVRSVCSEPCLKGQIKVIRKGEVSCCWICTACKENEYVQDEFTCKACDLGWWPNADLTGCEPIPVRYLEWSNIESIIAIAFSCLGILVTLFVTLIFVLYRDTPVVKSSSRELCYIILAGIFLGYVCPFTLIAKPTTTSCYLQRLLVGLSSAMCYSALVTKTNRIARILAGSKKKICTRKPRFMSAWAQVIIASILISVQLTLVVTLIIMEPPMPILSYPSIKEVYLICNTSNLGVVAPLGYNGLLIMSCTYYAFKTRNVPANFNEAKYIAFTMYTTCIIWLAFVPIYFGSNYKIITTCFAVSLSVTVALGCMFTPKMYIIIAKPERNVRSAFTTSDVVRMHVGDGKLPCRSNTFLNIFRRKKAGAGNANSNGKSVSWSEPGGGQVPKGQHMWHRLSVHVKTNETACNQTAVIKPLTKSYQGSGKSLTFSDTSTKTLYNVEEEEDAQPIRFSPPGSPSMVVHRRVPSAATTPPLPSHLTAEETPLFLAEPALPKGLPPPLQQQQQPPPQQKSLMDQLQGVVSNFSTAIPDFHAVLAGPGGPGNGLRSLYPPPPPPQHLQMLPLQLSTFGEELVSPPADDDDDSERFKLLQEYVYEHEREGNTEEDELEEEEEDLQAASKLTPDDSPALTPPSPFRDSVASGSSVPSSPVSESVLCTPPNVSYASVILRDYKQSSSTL

fp (plasma free fraction) ([1]; average of three baseline monkeys): 0.884%
fp ([1]; monkey blocked with nonradioactive LY2428703: baseline): 1.25 ± 0.12%
fp ([1]; monkey, 2.5 min after blockade with nonradioactive LY2428703): 1.12 ± 0.18%
fp ([1]; monkey, 40 min after blockade with nonradioactive LY2428703): 0.89 ± 0.14%
fp ([1]; monkey, DCPQ blocking experiment: baseline): 1.074%
fp ([1]; monkey, after DCPQ blockade): 1.100%
fp ([1]; monkey, after elacridar blockade): 0.912%
fp ([1]; monkey, elacridar blocking experiment: baseline): 0.456%
fp (plasma free fraction) [2]: 0.094%
radiation-absorbed dose ([3]; heart wall): 8.2 μSv/MBq
radiation-absorbed dose ([3]; liver): 9.9 μSv/MBq
effective dose ([3]; monkey data extrapolated to humans): 5.8 μSv/MBq
peak uptake in liver ([3]; monkey, average peak): approximately 12 SUV
time of peak uptake in liver ([3]; monkey, post-injection): about 5 min
radiation-absorbed dose ([3]; other organs): less than 7 μSv/MBq
radiation-absorbed dose ([3]; testes): 13.7 μSv/MBq
VT values (mGluR1; 2TCM, all brain regions): < 0.1 mL/cm^3
time of brain peak uptake (mGluR1; after injection): 1.3 ± 0 min
time at which brain activity decreased to 50% of the peak (mGluR1; average): 20 min
VT (mGluR1; caudate, two-tissue compartment model): 0.086 ± 0.024 (22.6%) mL · cm^−3
VT (mGluR1; cerebellum, two-tissue compartment model): 0.090 ± 0.010 (2.8%) mL · cm^−3
VT (mGluR1; frontal cortex, two-tissue compartment model): 0.092 ± 0.016 (14.2%) mL · cm^−3
VT (mGluR1; parietal cortex, two-tissue compartment model): 0.087 ± 0.011 (4.9%) mL · cm^−3
VT (mGluR1; temporal cortex, two-tissue compartment model): 0.102 ± 0.010 (4.4%) mL · cm^−3
mean VT (mGluR1; two-tissue compartment model): 0.093 ± 0.012 mL/cm^3
brain peak uptake (mGluR1; without vascular correction): 1.14 ± 0.18 SUV
SMILES: Cc1c(-c2ccc(O[11CH3])cc2)nsc1NC(=O)[C@@H]1C[C@H]1C [^11C-LY2428703]
fp (plasma free fraction) [4]: 2.7^a %
